Laboratory results published in patent publication US6436971B2, “Use of PDE 4-specific inhibitors to reduce the severity of a bacterial infection after a respiratory viral infection” (SmithKline Beecham Corporation, priority 2000, dated 2002).

Test system: S. pneumoniae (strain #0100993)
Assay: Sub-lethal influenza infection followed by S. pneumoniae co-infection, survival (LD50) after PDE 4 inhibitor pretreatment
Type: in vivo, mice

With `COc1ccc([C@]2(C#N)CC[C@@H](C(=O)O)CC2)cc1OC1CCCC1` [Ariflo, cis-4-cyano-4-[3-(cyclopentyloxy)-4-methoxyphenyl]cyclohexane-1-carboxylic acid] the “LD50 of S. pneumoniae in treated mice” value (10 mg/kg orally once daily on days 0 to 9, S. pneumoniae challenge IN on day 9, control diluent LD50 72) was 252 cfu/mouse and the “LD50 of S. pneumoniae in treated mice” value (30 mg/kg orally once daily on days 0 to 9, S. pneumoniae challenge IN on day 9, control diluent LD50 72) was 221 cfu/mouse.
